Patent US10508104B2, “6-hydroxy-5-(phenyl/heteroarylsulfonyl)pyrimidin-4(1H)-one as APJ agonists” (Bristol-Myers Squibb Company, priority 2016, dated 2019)
Like-named read-outs stand apart in the source and are kept apart here.

Biological target: human APJ receptor (Homo sapiens (Human), UniProt P35414)
Experiment: Intracellular cAMP accumulation assay (APJ hcAMP, HTRF)
Assay type: cell-based
Settings: read-out: Human APJ cAMP EC50 Potency range
Procedure, shortened: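 HEK293 cells stably expressing human APJ, 5,000 per well, incubated 30 min at rt with compound, […] and 2 μM forskolin. cAMP measured by HTRF against a cAMP standard curve as inhibition of forskolin-driven production. EC50 from variable-slope sigmoidal fit.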

[1] = HEK293 cells stably expressing human APJ receptor, inhibition of forskolin-mediated cAMP production

Sequence of human APJ receptor (P35414 whole entry): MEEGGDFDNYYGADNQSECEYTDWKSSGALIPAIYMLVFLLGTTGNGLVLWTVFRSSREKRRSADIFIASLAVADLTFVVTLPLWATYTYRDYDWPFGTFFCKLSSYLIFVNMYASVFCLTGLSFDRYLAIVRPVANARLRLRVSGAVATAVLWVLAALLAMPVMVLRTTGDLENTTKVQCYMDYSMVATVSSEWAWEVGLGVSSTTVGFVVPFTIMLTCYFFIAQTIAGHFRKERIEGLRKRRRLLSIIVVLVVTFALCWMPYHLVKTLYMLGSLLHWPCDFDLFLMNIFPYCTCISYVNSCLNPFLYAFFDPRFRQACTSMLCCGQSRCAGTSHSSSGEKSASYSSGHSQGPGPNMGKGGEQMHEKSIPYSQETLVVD

| SMILES | EC50 (human APJ, cAMP accumulation) [nM] | EC50 [1] [nM] |
| --- | --- | --- |
| CCCCc1nc(=O)c(S(=O)(=O)c2ccc(-c3ccncc3C)cc2)c(O)n1[C@H](CC)c1cccc2c1OCO2 [Example 259, 1-[(1R)-1-(2H-1,3-benzodioxol-4-yl)propyl]-2-butyl-6-hydroxy-5-[4-(3-methylpyridin-4-yl)benzenesulfonyl]-1,4-dihydropyrimidin-4-one] | 0.01 to 10 | – |
| CCCCc1nc(=O)c(S(=O)(=O)c2ccc(-c3cccnc3C)cc2)c(O)n1[C@H](CC)c1cccc2c1OCO2 [Example 260, 1-[(1R)-1-(2H-1,3-benzodioxol-4-yl)propyl]-2-butyl-6-hydroxy-5-[4-(2-methylpyridin-3-yl)benzenesulfonyl]-1,4-dihydropyrimidin-4-one] | 0.01 to 10 | – |
| CCCCc1nc(O)c(S(=O)(=O)c2ccc(Br)cc2)c(=O)n1[C@@H](CC)c1cccc2c1OCO2 [Example 261, 3-[(1S)-1-(2H-1,3-benzodioxol-4-yl)propyl]-5-(4-bromobenzenesulfonyl)-2-butyl-6-hydroxy-3,4-dihydropyrimidin-4-one] | 0.01 to 10 | – |
| CCCCc1nc(=O)c(S(=O)(=O)c2ccc(-c3ccc(F)nc3C)cc2)c(O)n1[C@H](CC)c1cccc2c1OCO2 [Example 262, 1-[(1R)-1-(2H-1,3-benzodioxol-4-yl)propyl]-2-butyl-5-[4-(6-fluoro-2-methylpyridin-3-yl)benzenesulfonyl]-6-hydroxy-1,4-dihydropyrimidin-4-one] | 0.01 to 10 | – |
| CCCCc1nc(=O)c(S(=O)(=O)c2ccc(-c3cccnc3C)cc2)c(O)n1[C@@H](CC)c1cccc2c1OCO2 [Example 263, 1-[(1S)-1-(2H-1,3-benzodioxol-4-yl)propyl]-2-butyl-6-hydroxy-5-[4-(2-methylpyridin-3-yl)benzenesulfonyl]-1,4-dihydropyrimidin-4-one] | 0.01 to 10 | – |
| CCCCc1nc(=O)c(S(=O)(=O)c2ccc(-c3ccc(F)nc3C)cc2)c(O)n1[C@@H](CC)c1cccc2c1OCO2 [Example 264, 1-[(1S)-1-(2H-1,3-benzodioxol-4-yl)propyl]-2-butyl-5-[4-(6-fluoro-2-methylpyridin-3-yl)benzenesulfonyl]-6-hydroxy-1,4-dihydropyrimidin-4-one] | 0.01 to 10 | – |
| CCCCc1nc(=O)c(S(=O)(=O)c2ccc(-c3ccncc3C)cc2)c(O)n1[C@@H](CC)c1ccc(C#N)cc1 [Example 265, 4-[(1S)-1-{2-butyl-6-hydroxy-5-[4-(3-methylpyridin-4-yl)benzenesulfonyl]-4-oxo-1,4-dihydropyrimidin-1-yl}propyl]benzonitrile] | 0.01 to 10 | – |
| CCCCc1nc(=O)c(S(=O)(=O)c2ccc(-c3cccnc3C)cc2)c(O)n1[C@@H](CC)c1ccc(C#N)cc1 [Example 266, 4-[(1S)-1-{2-butyl-6-hydroxy-5-[4-(2-methylpyridin-3-yl)benzenesulfonyl]-4-oxo-1,4-dihydropyrimidin-1-yl}propyl]benzonitrile] | 0.01 to 10 | – |
| CCCCc1nc(=O)c(S(=O)(=O)c2ccc(-c3ccc(F)nc3C)cc2)c(O)n1[C@@H](CC)c1ccc(C#N)cc1 [Example 267, 4-[(1S)-1-{2-butyl-5-[4-(6-fluoro-2-methylpyridin-3-yl)benzenesulfonyl]-6-hydroxy-4-oxo-1,4-dihydropyrimidin-1-yl}propyl]benzonitrile] | 0.01 to 10 | – |
| CCCCc1nc(=O)c(S(=O)(=O)c2ccc(-c3ccnc(F)c3C)cc2)c(O)n1[C@@H](CC)c1ccc(C#N)cc1 [Example 268, 4-[(1S)-1-{2-butyl-5-[4-(2-fluoro-3-methylpyridin-4-yl)benzenesulfonyl]-6-hydroxy-4-oxo-1,4-dihydropyrimidin-1-yl}propyl]benzonitrile] | 0.01 to 10 | – |
| COc1cccc(OC)c1-n1c(-c2ccc(F)cc2)nc(=O)c(S(=O)(=O)c2ccc(Br)cc2)c1O [Example 269, 5-((4-Bromophenyl)sulfonyl)-1-(2,6-dimethoxyphenyl)-2-(4-fluorophenyl)-6-hydroxypyrimidin-4(1H)-one] | – | 100 to 300 |
| COc1cccc(OC)c1-n1c(-c2cncc(C)c2)nc(=O)c(S(=O)(=O)c2ccc(Br)cc2)c1O [Example 270, 5-(4-bromobenzenesulfonyl)-1-(2,6-dimethoxyphenyl)-6-hydroxy-2-(5-methylpyridin-3-yl)-1,4-dihydropyrimidin-4-one] | 10 to 100 | – |
| COc1cccc(OC)c1-n1c(-c2ccc(F)cc2)nc(=O)c(S(=O)(=O)c2ccc(-c3cccnc3C)cc2)c1O [Example 271, 1-(2,6-Dimethoxyphenyl)-2-(4-fluorophenyl)-6-hydroxy-5-((4-(2-methylpyridin-3-yl)phenyl)sulfonyl)pyrimidin-4(1H)-one] | – | 0.01 to 10 |
| COc1cccc(OC)c1-n1c(-c2cncc(C)c2)nc(=O)c(S(=O)(=O)c2ccc(-c3cccnc3C)cc2)c1O [Example 272, 1-(2,6-dimethoxyphenyl)-6-hydroxy-2-(5-methylpyridin-3-yl)-5-[4-(2-methylpyridin-3-yl)benzenesulfonyl]-1,4-dihydropyrimidin-4-one] | 0.01 to 10 | – |
| COc1cccc(OC)c1-n1c(-c2ccc(F)cc2)nc(=O)c(S(=O)(=O)c2ccc(-c3ccncc3C)cc2)c1O [Example 273] | 0.01 to 10 | – |
| COc1cccc(OC)c1-n1c(-c2cncc(C)c2)nc(=O)c(S(=O)(=O)c2ccc(-c3ccnc(F)c3C)cc2)c1O [Example 274, 1-(2,6-dimethoxyphenyl)-5-[4-(2-fluoro-3-methylpyridin-4-yl)benzenesulfonyl]-6-hydroxy-2-(5-methylpyridin-3-yl)-1,4-dihydropyrimidin-4-one] | 0.01 to 10 | – |
| COc1cccc(OC)c1-n1c(-c2ccc(F)cc2)nc(=O)c(S(=O)(=O)c2ccc(-n3cc(Cl)ccc3=O)cc2)c1O [Example 275, 5-((4-(5-Chloro-2-oxopyridin-1 (2H)-yl)phenyl)sulfonyl)-1-(2,6-dimethoxyphenyl)-2-(4-fluorophenyl)-6-hydroxypyrimidin-4(1H)-one] | – | 0.01 to 10 |
| COc1cccc(OC)c1-n1c(-c2cncc(C)c2)nc(=O)c(S(=O)(=O)c2ccc(-n3cc(Cl)ccc3=O)cc2)c1O [Example 276, 5-[4-(5-chloro-2-oxo-1,2-dihydropyridin-1-yl)benzenesulfonyl]-1-(2,6-dimethoxyphenyl)-6-hydroxy-2-(5-methylpyridin-3-yl)-1,4-dihydropyrimidin-4-one] | 0.01 to 10 | – |
| COc1cccc(OC)c1-n1c(-c2cncc(C)c2)nc(=O)c(S(=O)(=O)c2ccc(C3CC3)cc2)c1O [Example 277, 5-(4-cyclopropylbenzene-sulfonyl)-1-(2,6-dimethoxyphenyl)-6-hydroxy-2-(5-methylpyridin-3-yl)-1,4-dihydropyrimidin-4-one] | 0.01 to 10 | – |
| COc1cccc(OC)c1-n1c(-c2ccc(F)cc2)nc(=O)c(S(=O)(=O)c2ccc(C3CC3)cc2)c1O [Example 278, 5-((4-Cyclopropylphenyl)sulfonyl)-1-(2,6-dimethoxyphenyl)-2-(4-fluorophenyl)-6-hydroxypyrimidin-4(1H)-one] | – | 10 to 100 |
| CC[C@@H](c1ccccc1)n1c(C2CCCC2)nc(=O)c(S(=O)(=O)c2ccc(Br)cc2)c1O [Example 279, (S)-5-((4-Bromophenyl)sulfonyl)-2-cyclopentyl-6-hydroxy-1-(1-phenylpropyl)pyrimidin-4(1H)-one] | – | 10 to 100 |
| CC[C@@H](c1ccccc1)n1c(C2CCCC2)nc(=O)c(S(=O)(=O)c2ccc(-c3ccc(F)nc3)cc2)c1O [Example 280, 2-cyclopentyl-5-[4-(6-fluoropyridin-3-yl)benzenesulfonyl]-6-hydroxy-1-[(1S)-1-phenylpropyl]-1,4-dihydropyrimidin-4-one] | 0.01 to 10 | – |
| CC[C@@H](c1ccccc1)n1c(C2CCCC2)nc(=O)c(S(=O)(=O)c2ccc(-c3cncc(C)c3)cc2)c1O [Example 281, 2-cyclopentyl-6-hydroxy-5-[4-(5-methylpyridin-3-yl)benzenesulfonyl]-1-[(1S)-1-phenylpropyl]-1,4-dihydropyrimidin-4-one] | 0.01 to 10 | – |
| CC[C@@H](c1ccccc1)n1c(C2CCCC2)nc(=O)c(S(=O)(=O)c2ccc(-c3ccncc3C)cc2)c1O [Example 282, 2-cyclopentyl-6-hydroxy-5-[4-(3-methylpyridin-4-yl)benzenesulfonyl]-1-[(1S)-1-phenylpropyl] 1,4-dihydropyrimidin-4-one] | 0.01 to 10 | – |
| CC[C@@H](c1ccccc1)n1c(C2CCCC2)nc(=O)c(S(=O)(=O)c2ccc(-c3cncc(F)c3)cc2)c1O [Example 283, 2-cyclopentyl-5-[4-(5-fluoropyridin-3-yl)benzenesulfonyl]-6-hydroxy-1-[(1S)-1-phenylpropyl]-1,4-dihydropyrimidin-4-one] | 0.01 to 10 | – |
| CCCCc1nc(=O)c(S(=O)(=O)c2ccc(Br)cc2)c(O)n1[C@@H](CC)c1ccccc1 [Example 284, 5-(4-bromobenzenesulfonyl)-2-butyl-6-hydroxy-1-[(1S)-1-phenylpropyl]-1,4-dihydropyrimidin-4-one] | 0.01 to 10 | – |
| CCOCc1nc(=O)c(S(=O)(=O)c2ccc(Br)cc2)c(O)n1[C@@H](CC)c1ccccc1 [Example 285, 5-(4-bromobenzenesulfonyl)-2-(ethoxymethyl)-6-hydroxy-1-[(1S)-1-phenylpropyl]-1,4-dihydropyrimidin-4-one] | 100 to 300 | – |
| CC[C@@H](c1ccccc1)n1c(COC(C)C)nc(=O)c(S(=O)(=O)c2ccc(Br)cc2)c1O [Example 286, 5-(4-bromobenzenesulfonyl)-6-hydroxy-1-[(1S)-1-phenylpropyl]-2-[(propan-2-yloxy)methyl]-1,4-dihydropyrimidin-4-one] | 100 to 300 | – |
| CCCCc1nc(=O)c(S(=O)(=O)c2ccc(-n3ccccc3=O)cc2)c(O)n1[C@@H](CC)c1ccccc1 [Example 287, 2-butyl-6-hydroxy-5-[4-(2-oxo-1,2-dihydropyridin-1-yl)benzenesulfonyl]-1-[(1S)-1-phenylpropyl]-1,4-dihydropyrimidin-4-one] | 0.01 to 10 | – |
